Each structure is given as a SMILES string. Bounds are passed on as bounds.

In this experiment the target is Keap1/Nrf2 (Homo sapiens, UniProt Q14145).
Keap1/Nrf2, sequence (Q16236 whole entry): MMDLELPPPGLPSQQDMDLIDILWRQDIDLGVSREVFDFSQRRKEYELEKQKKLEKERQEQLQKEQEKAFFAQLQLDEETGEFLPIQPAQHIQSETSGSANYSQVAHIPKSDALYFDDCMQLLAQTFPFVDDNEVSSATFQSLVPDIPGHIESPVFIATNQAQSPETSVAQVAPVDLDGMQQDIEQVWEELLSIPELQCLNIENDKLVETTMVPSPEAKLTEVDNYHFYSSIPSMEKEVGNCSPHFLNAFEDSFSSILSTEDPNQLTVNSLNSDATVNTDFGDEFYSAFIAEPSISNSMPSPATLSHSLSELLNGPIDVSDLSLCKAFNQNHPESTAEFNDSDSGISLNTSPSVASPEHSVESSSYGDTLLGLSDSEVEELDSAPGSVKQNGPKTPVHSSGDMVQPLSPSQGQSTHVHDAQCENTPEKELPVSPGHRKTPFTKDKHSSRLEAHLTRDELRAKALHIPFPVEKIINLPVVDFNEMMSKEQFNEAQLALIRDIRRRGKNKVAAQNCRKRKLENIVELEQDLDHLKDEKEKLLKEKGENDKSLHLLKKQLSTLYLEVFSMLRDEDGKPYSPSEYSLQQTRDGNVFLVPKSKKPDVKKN
Keap1/Nrf2, sequence (Q14145 whole entry): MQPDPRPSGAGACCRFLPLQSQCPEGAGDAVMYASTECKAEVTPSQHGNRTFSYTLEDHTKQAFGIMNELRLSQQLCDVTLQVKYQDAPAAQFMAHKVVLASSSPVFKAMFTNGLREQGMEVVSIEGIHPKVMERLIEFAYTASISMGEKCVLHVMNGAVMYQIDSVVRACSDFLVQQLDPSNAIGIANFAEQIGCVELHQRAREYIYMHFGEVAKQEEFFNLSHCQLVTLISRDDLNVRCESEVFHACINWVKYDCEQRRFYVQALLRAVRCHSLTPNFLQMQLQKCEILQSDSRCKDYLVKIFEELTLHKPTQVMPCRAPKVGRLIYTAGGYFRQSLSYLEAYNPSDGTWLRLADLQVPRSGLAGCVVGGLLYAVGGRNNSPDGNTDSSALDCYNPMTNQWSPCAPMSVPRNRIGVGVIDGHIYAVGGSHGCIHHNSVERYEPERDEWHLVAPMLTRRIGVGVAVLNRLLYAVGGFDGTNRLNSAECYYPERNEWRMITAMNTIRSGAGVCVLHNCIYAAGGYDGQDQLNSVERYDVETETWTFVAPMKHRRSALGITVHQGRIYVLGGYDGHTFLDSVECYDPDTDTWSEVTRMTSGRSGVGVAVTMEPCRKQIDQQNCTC
Description: Inhibition of Keap1 kelch domain (322 to 609 residues) (unknown origin)/Nrf2 (unknown origin) protein-protein interaction incubated for 30 mins by fluorescence polarization assay
The term IC50 denotes the concentration that inhibits the measured activity by half. The low end stands for inhibition by little substance, the high end for a need for much substance. For `C[C@@H](CC(=O)O)Nc1ccc(N(CC(=O)O)S(=O)(=O)c2ccc(C(F)(F)F)cc2)c2ccccc12`, the IC50 was found to be 16.5 µM.

The compound `Cc1cc(C)c(C)c(S(=O)(=O)N(CC(=O)O)c2ccc(N[C@@H](C)CC(=O)O)c3ccccc23)c1C` yielded an IC50 of 1.61 µM. `Cc1cc(C)c(S(=O)(=O)Nc2ccc(N[C@@H](C)CC(=O)O)c3ccccc23)c(C)c1`: half-maximal inhibition (IC50) was put at 2.28 µM. On to `C[C@@H](CC(=O)O)Nc1ccc(N(CC(=O)O)S(=O)(=O)c2ccc(Cl)cc2)c2ccccc12`, for which the IC50 stood at 10.6 µM. For the compound `COc1ccc(S(=O)(=O)Nc2ccc(N[C@@H](CC(=O)O)c3ccccc3)c3ccccc23)cc1`, the half-inhibitory concentration (IC50) is greater than 50 µM.

As to `C[C@@H](CC(=O)O)Nc1ccc(NS(=O)(=O)c2ccc(C(C)(C)C)cc2)c2ccccc12`, the half-inhibitory concentration (IC50) was greater than 50 µM. Regarding `COc1ccc(S(=O)(=O)N(CC(=O)O)c2ccc(N[C@@H](CC(=O)O)c3ccccc3)c3ccccc23)cc1`, half-maximal inhibition (IC50) was put at 13.9 µM. The compound `COc1ccc(S(=O)(=O)N(CC(=O)O)c2ccc(N[C@@H](C)CC(=O)O)c3ccccc23)cc1` displayed an IC50 of 8.21 µM. On to `COc1ccc(S(=O)(=O)Nc2ccc(N[C@@H](C)CC(=O)O)c3ccccc23)cc1`, for which the IC50 is greater than 50 µM.

In turn, `C[C@@H](CC(=O)O)Nc1ccc(NS(=O)(=O)c2ccc(C(F)(F)F)cc2)c2ccccc12` yielded an IC50 of 47.6 µM. Take `C[C@@H](CC(=O)O)Nc1ccc(N(CC(=O)O)S(=O)(=O)c2ccc(C(C)(C)C)cc2)c2ccccc12`: the IC50 came out at 10.1 µM. This IC50 is about 4.7-fold lower than that of the compound before.

`C[C@@H](CC(=O)O)Nc1ccc(NS(=O)(=O)c2ccc(F)cc2)c2ccccc12` yielded an IC50 greater than 50 µM. The compound `Cc1cc(C)c(C)c(S(=O)(=O)Nc2ccc(N[C@@H](C)CC(=O)O)c3ccccc23)c1C` gave an IC50 of 6.64 µM. In other words, the single-digit micromolar range.

As to `Cc1ccc(S(=O)(=O)Nc2ccc(N[C@@H](C)CC(=O)O)c3ccccc23)cc1`, half-maximal inhibition (IC50) was put at 44 µM. Take `CCOc1ccc(S(=O)(=O)Nc2ccc(N[C@@H](C)CC(=O)O)c3ccccc23)cc1`: the IC50 is 33.4 µM. In turn, `C[C@@H](CC(=O)O)Nc1ccc(NS(=O)(=O)c2ccc(Cl)cc2)c2ccccc12` displayed an IC50 greater than 50 µM. Regarding `C[C@@H](CC(=O)O)Nc1ccc(N(CC(=O)O)S(=O)(=O)c2ccc(F)cc2)c2ccccc12`, the midpoint of inhibition, the IC50, lay at 23.7 µM. With `Cc1ccc(S(=O)(=O)N(CC(=O)O)c2ccc(N[C@@H](C)CC(=O)O)c3ccccc23)cc1` the figure was 7.14 µM; with `CCOc1ccc(S(=O)(=O)N(CC(=O)O)c2ccc(N[C@@H](C)CC(=O)O)c3ccccc23)cc1`, 8.82 µM.

The record behind these values is ChEMBL document CHEMBL6109073, “Discovery of β-amino acid substituted naphthalene sulfonamide derivatives as potent Kelch-like ECH-associated protein 1-nuclear factor erythroid 2-related factor 2 (Keap1-Nrf2) protein-protein interaction inhibitors for ulcerative colitis management” (Eur J Med Chem, 2025).
